Here are results for one molecule from PMC12817916, “A small-molecule HSP90 inhibitor, NVP-HSP990, alleviates rotavirus infection” (Journal of Virology, 2025).

A word on the CC50: it is the concentration giving 50% cytotoxicity.

The subject of one data set is HT-29 cells. The experiment in a line: Cytotoxicity assay (CCK-8). It counts as cell-based, Human. The conditions noted are these: HT-29 cells, 24 h, CCK-8; read-out: CC50. As to the method:
(§1) To evaluate the cytotoxicity of different HSP90 inhibitors in vitro, 10,000 MA104 cells, 30,000 Caco-2 cells, and 80,000 HT-29 cells in 100 µL complete DMEM medium were seeded in 96-well plates and cultured at 37°C and 5% CO2 for 24 h to reach about 100% confluence, and a cell-free control was also set. After removing the initial medium, 100 µL of complete DMEM medium containing the indicated concentrations of drugs was added to each well, and the plates were incubated at 37°C and 5% CO2. Twenty-four hours later, the drug-containing medium was replaced with 100 µL fresh complete DMEM medium plus 10 µL 5 mM CCK-8 reagent (Beyotime, China), and OD450 absorbance of each well was detected 3 h later using a microplate reader (Gene Company Limited, China). Relative cell viability rate = OD450 (drug-treated cells − cell-free control) / OD450 (0 µM drug-treated cells − cell-free control).
(§2) The 50% cytotoxic concentration (CC50) values were determined by nonlinear regression (curve fit) analysis in GraphPad Prism 9.0 (GraphPad Software). Dose-response data (drug concentrations as X-axis and normalized cell viability percentages as Y-axis) were fitted to a Dose-response Inhibition model ("[Inhibitor] vs. normalized response-Variable slope"). The curve was constrained to a bottom limit of 0% viability. The CC50 value was automatically calculated as the X-intercept at Y=50%. Model adequacy was validated using goodness-of-fit metrics (R²≥0.95), 95% confidence intervals, and residual distribution analysis. Final CC50 values were derived from three independent biological replicates and reported as mean ± SEM.

For a further data set, the system named is Caco-2 cells. Nature of the data set: Cytotoxicity assay (CCK-8). To be noted: Caco-2 cells, 24 h, CCK-8; read-out: CC50. The format is cell-based, Human. As to the method: as §1, §2
The conditions of data set [1]: cited from earlier work.
The test system of a further data set is RV SA11 strain. Nature of the data set: RV SA11 diarrhea model in suckling mice. It counts as in vivo, BALB/c suckling mice. The conditions noted are these: for infectious RV particles and viral antigens in intestinal contents, transcription of RV VP6 in intestinal epithelial cells: compared to controls. As to the method: BALB/c mice were purchased from Gempharmatech Inc. (Suzhou, China) and housed under SPF conditions (22 ± 1°C, 12 h light/dark cycle). Suckling mice were obtained by mating male and female adult BALB/c mice (12- to 16-week-old). Only the 7-day-old BALB/c suckling mice with body weights ranging from 2.5 g to 4.5 g were selected for RV diarrhea models. For induction of RV diarrhea, 1 × 10^6 PFU of SA11 strain or 10 × DD50 of EDIM strain in 20 µL PBS was orally inoculated using a pipette tip to 7-day-old BALB/c suckling mice regardless of their sexes, as sex has no significant influence on RV diarrhea occurrence. We used a scoring system to evaluate fecal consistency and color as described with some modification ([27]): no stool or brown formed stool (1 point); brown soft stool (2 points); yellow soft stool (3 points); and yellow watery stool (4 points). Mice with scores of ≥2 meant diarrhea occurrence, while mice with scores of 1 meant no diarrhea. At the end of each experiment, all infected or drug-treated suckling mice were humanely euthanized via CO2 asphyxiation.
Seven-day-old BALB/c suckling mice meeting the weight criteria within each litter were randomly assigned to experimental groups. Each litter was allocated to ensure one to three suckling mice per experimental group (variations dependent on the total number of groups). Data from suckling mice assigned to the same group across multiple litters were aggregated to achieve a total sample size of n = 3–6 per experimental group. Then, the suckling mice were orally inoculated with 1 × 10^6 PFU of the SA11 strain or 10 × DD50 of the EDIM strain, or with an equal amount of PBS as mock infection. For SA11 infection, the suckling mice were orally treated once with indicated doses of drugs or with an equal volume of DMSO as control at 2 h p.i. For EDIM infection, the suckling mice were orally treated with 0.2 mg/kg/day NVP-HSP990, 30 mg/kg/day ribavirin, or an equal amount of DMSO as control from 2 days post-infection (d p.i.) to indicated time points. Diarrhea scores and body weight were monitored from day 0 to day 7 post-infection in the SA11 infection model, and from day 0 to day 9 post-diarrhea occurrence (2–11 d p.i.) in the EDIM infection model. Blinding was applied throughout data collection and analysis.
The RV-infected suckling mice were sacrificed by CO2 asphyxiation at the indicated times, and small intestines (including duodenum, jejunum, and ileum) or colon was homogenized in 0.3 mL DMEM, centrifuged at 12,000 × g for 5 min at 4°C, and the supernatant was collected. Virus contents in the supernatant were titrated with PFA as described above. Viral antigens in the supernatant were detected with enzyme-linked immunosorbent assay (ELISA) kits for RV (CUSABIO, China) following the manufacturer’s instructions. For qPCR analysis of RV protein expression, the intestines were longitudinally split and washed in 1 mL DMEM by shaking for 30 s. Then, the tissues were cut into 0.5 cm segments, incubated in Hank’s buffer containing 2.5 mM EDTA-Na2 and 1 mM dithiothreitol (Sangon Biotech, China) at 37°C with rotation at 200 rpm for 30 min, filtered with a 70 µm strainer. Then the epithelial cells were pelleted by centrifugation at 500 × g for 5 min, purified with 20% Percoll (Cytiva, Sweden), and lysed in Trizol for RNA extraction and further qPCR analysis.
The jejunum and ileum of suckling mice were fixed in 4% paraformaldehyde for 24 h, washed with PBS twice, and then subjected to paraffin embedding and slicing at 5 µm thickness. The sections were stained with hematoxylin and eosin (Beyotime, China) and observed with an Olympus BX51 microscope, and the data were processed by CaseViewer 2.4 software. For immunohistochemistry analysis, the fixed tissues were dehydrated in 30% sucrose, embedded in Optimal Cutting Temperature compound, frozen with liquid nitrogen, and cryosliced at 10 µm thickness. […]

Where [2] appears, read: 1 mg/kg oral, once, 0 to 7 days post-infection.
[3] abbreviates: oral, once at 2 h p.i., 24 h p.i., 1 × 10^6 PFU SA11.

For `COc1cccc(-c2cc(F)ccc2[C@H]2Cc3nc(N)nc(C)c3C(=O)N2)n1` [NVP-HSP990], in the data set on HT-29 cells, the CC50 was more than 100 µM. Moreover, in the data set on Caco-2 cells, the CC50 is more than 100 µM. In data set [1], the brain penetration result is listed as “brain-penetrating” and the oral bioavailability entry is listed as “orally bioavailable”. Also, in the data set on RV SA11 strain (setting [2]), the “body growth of RV-infected suckling mice” value is “did not hinder” and the “diarrhea of RV-infected suckling mice” value is on record as “significantly alleviated”. Moreover, the “RV-induced foamy degeneration in the ileal epithelium” value in the data set with RV SA11 strain (SA11-infected mice, 1 mg/kg oral, 16 h p.i., hematoxylin/eosin) is on record as “markedly attenuated”. The “infectious RV particles and viral antigens in intestinal contents, transcription of RV VP6 in intestinal epithelial cells” value in the data set on RV SA11 strain (duodenum, 1 mg/kg oral, 16 h p.i.) was “no significant differences”. Moreover, in the data set on RV SA11 strain (jejunum and ileum, 1 mg/kg oral, 16 h p.i.), the “infectious RV particles and viral antigens in intestinal contents, transcription of RV VP6 in intestinal epithelial cells” value was “remarkably reduced”. For the same molecule, the “pathological changes in the ileum” value in the data set on RV SA11 strain (mock-infected mice, NVP-HSP990 treatment alone, 1 mg/kg oral, hematoxylin/eosin) was “no appreciable pathological changes”. Moreover, in the data set on RV SA11 strain (setting [3]), the “ED50 for RV diarrhea occurrence” value worked out at 0.1423 mg/kg and the “ED50 for diarrhea score reduction” value was found to be 0.1355 mg/kg.
